This passage reports IC50 results from patent US8927715B2, “Inhibitors of 11β-hydroxysteroid dehydrogenase type 1” (Vitae Pharmaceuticals, Inc., priority 2006, dated 2015).

For orientation: IC50 means the concentration at which inhibition is half-maximal.

For this assay, the target named is human 11β-HSD1 (Homo sapiens, UniProt P28845). The experiment in a line: Inhibition of a microsomal preparation of 11β-HSD1, SPA (Biological Test Example 2). The assay is classed as biochemical. Also noted: expressed in transfected cells; host or cells: CHO cells (microsomes). The note with it: read-out: Biological Test Example 2 (IC50 class). How it is done: All reactions are carried out at room temperature in 96 well clear flexible PET Microbeta plates (PerkinElmer). […] After a 10 minute pre-incubation, 50 μL of enzyme solution containing microsomes isolated from CHO cells overexpressing human 11β-HSD1 (10-20 μg/ml of total protein) is added, and the plates are then incubated for 90 minutes at room temperature. The reaction is stopped by adding 50 μl of the SPA beads suspension containing […] 18β-glycyrrhetinic acid, 5 mg/ml protein A coated YSi SPA beads (GE Healthcare) and 3.3 μg/ml of anti-cortisol antibody (East Coast Biologics) in Superblock buffer (Bio-Rad). The plates are then shaken for 120 minutes at room temperature, and the SPA signal corresponding to [^3H]cortisol is measured on a Microbeta plate reader.
Chain of human 11β-HSD1 (P28845 whole entry): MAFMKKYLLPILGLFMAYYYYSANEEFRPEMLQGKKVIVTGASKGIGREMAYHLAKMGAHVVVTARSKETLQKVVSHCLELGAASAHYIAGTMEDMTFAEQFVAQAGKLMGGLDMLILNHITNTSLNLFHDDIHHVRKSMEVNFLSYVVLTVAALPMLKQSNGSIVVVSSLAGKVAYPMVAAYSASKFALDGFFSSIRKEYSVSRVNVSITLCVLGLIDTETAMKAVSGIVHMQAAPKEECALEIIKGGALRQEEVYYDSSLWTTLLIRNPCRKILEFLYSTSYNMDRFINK
For the compound `CN1CCN(CCNC(=O)CC2CC3(CCN(C(=O)NC4C5CC6CC(C5)CC4C6)CC3)c3c(Br)cccc32)CC1` (centres unmarked) [Example 121, 7-Bromo-N-(2-adamantyl)-3-(2-(2-(4-methylpiperazin-1-yl)ethylamino)-2-oxoethyl)-2,3-dihydrospiro[indene-1,4′-piperidine]-1′-carboxamide], the IC50 is < 50 nM.

Turning to `O=C(OC1C2CC3CC(C2)CC1C3)N1CCC2(CC1)CNCc1ccccc12` (centres unmarked) [Example 38, 2-Adamantyl 2,3-dihydro-1H-spiro[isoquinoline-4,4′-piperidine]-1′-carboxylate], the IC50 is < 50 nM. With `O=C(NC1C2CC3CC(C2)CC1C3)N1CCC2(CCCc3ccccc32)CC1` (centres unmarked) [Example 78, N-(2-Adamantyl)-3,4-dihydro-2H-spiro[naphthalene-1,4′-piperidine]-1′-carboxamide] the figure was < 50 nM. As for `N#Cc1ccc(N2Cc3ccccc3C3(CCN(C(=O)OC4C5CC6CC(C5)CC4C6)CC3)C2)nc1` (centres unmarked) [Example 41, 2-Adamantyl 2-(5-cyanopyridin-2-yl)-2,3-dihydro-1H-spiro[isoquinoline-4,4′-piperidine]-1′-carboxylate], the figure is < 50 nM; as for `CN1C(=S)c2ccccc2C12CCN(C(=O)NC1C3CC4CC(C3)CC1C4)CC2` (centres unmarked) [103, Step 1 Product], < 50 nM. With `CN(C)C(=O)CC1CC2(CCN(C(=O)OC3C4CC5CC(C4)CC3C5)CC2)c2ccccc21` (racemic) [Example 71, (±)-2-Adamantyl 3-(2-(dimethylamino)-2-oxoethyl)-2,3-dihydrospiro[indene-1,4′-piperidine]-1′-carboxylate] the figure was < 50 nM. `CS(=O)(=O)N1Cc2ccccc2C2(CCN(C(=O)NC3C4CC5CC(C4)CC3C5)CC2)C1` (centres unmarked) [Example 34, N-(2-Adamantyl)-2-(methylsulfonyl)-2,3-dihydro-1H-spiro[isoquinoline-4,4′-piperidine]-1′-carboxamide]: the concentration for half-maximal inhibition (IC50) is < 50 nM. With `CS(=O)(=O)NC(=O)CC1CC2(CCN(C(=O)OC3C4CC5CC(C4)CC3C5)CC2)c2c(Br)cccc21` (racemic) [Example 69, (±)-2-Adamantyl 7-bromo-3-(2-(methylsulfonamido)-2-oxoethyl)-2,3-dihydrospiro[indene-1,4′-piperidine]-1′-carboxylate], the IC50 was < 50 nM. As for `C=CCC1OC2(CCN(C(=O)NC3C4CC5CC(C4)CC3C5)CC2)c2c(Cl)cccc21` (centres unmarked) [Example 102, 3-Allyl-7-chloro-N-(2-adamantyl)-3H-spiro[isobenzofuran-1,4′-piperidine]-1′-carboxamide], the figure is < 50 nM; as for `CNC(=O)N1Cc2ccccc2C2(CCN(C(=O)NC3C4CC5CC(C4)CC3C5)CC2)C1` (centres unmarked) [Example 35, N1′-(2-Adamantyl)-N2-methyl-1H-spiro[isoquinoline-4,4′-piperidine]-1′,2(3H)-dicarboxamide], < 50 nM.

With `O=C(O)CC1CC2(CCN(C(=O)NC3C4CC5CC3CC(F)(C5)C4)CC2)c2c(Br)cccc21` (centres unmarked) [Example 74], the IC50 was < 50 nM. As for `CN(C)CCCCNC(=O)CC1CC2(CCN(C(=O)NC3C4CC5CC(C4)CC3C5)CC2)c2c(Br)cccc21` (centres unmarked) [Example 118, 7-Bromo-N-(2-adamantyl)-3-(2-(4-(dimethylamino)butylamino)-2-oxoethyl)-2,3-dihydrospiro[indene-1,4-r-piperidine]-1′-carboxamide], the figure is < 50 nM. With `O=C(NC1C2CC3CC(C2)CC1C3)N1CCC2(CCc3ccccc32)CC1` (centres unmarked) [Example 28, N-(2-Adamantyl)-2,3-dihydrospiro[indene-1,4′-piperidine]-1′-carboxamide] the figure was < 50 nM. With `O=C(O)CCCC(=O)N1CC2(CCN(C(=O)NC3C4CC5CC(C4)CC3C5)CC2)c2ccccc21` (centres unmarked) [Example 93, 5-(1′-(2-Adamantylcarbamoyl)spiro[indoline-3,4′-piperidine]-1-yl)-5-oxopentanoic acid] the figure was < 50 nM.
